# According to US7358268B2, “Imidazole derivatives as factor Xa inhibitors” (Sanofi-Aventis Deutschland GmbH, priority 2002, dated 2008):
# Molecular target: T1, human factor Xa (Homo sapiens, UniProt P00742)
# T1 construct: 25 μl human factor Xa (Enzyme Research Laboratories, Inc; South Bend, Ind.) in TBS-PEG; purchased Enzyme Research Laboratories, Inc; South Bend, Ind
# Assay: Factor Xa assay (chromogenic, purified enzyme)
# Assay type: biochemical
# Details: inhibition constant for factor Xa; chromogenic substrate S-2765 140 μM, enzyme 0.5 nM, 25° C., pH 7.8; Ki calculated from IC50 (Ki=IC50/{1+(substrate concentration/Km)}); read-out: Ki(FXa)
# Method: The ability of the compounds of the formula I to inhibit factor Xa or factor VIIa or other enzymes like thrombin, plasmin, or trypsin can be assessed by determining the concentration of the compound of the formula I that inhibits enzyme activity by 50%, i. e. the IC50 value, which was related to the inhibition constant Ki. Purified enzymes were used in chromogenic assays. The concentration of inhibitor that causes a 50% decrease in the rate of substrate hydrolysis was determined by linear regression after plotting the relative rates of hydrolysis (compared to the uninhibited control) versus the log of the concentration of the compound of formula I. For calculating the inhibition constant Ki, the IC50 value was corrected for competition with substrate using the formula Ki=IC50/{1+(substrate concentration/Km)} wherein Km is the Michaelis-Menten constant (Chen and Prusoff, Biochem. Pharmacol. 22 (1973), 3099-3108; I. H. Segal, Enzyme Kinetics, 1975, John Wiley & Sons, New York, 100-125; which were incorporated herein by reference). a) Factor Xa Assay
# In the assay for determining the inhibition of factor Xa activity TBS-PEG buffer (50 mM Tris-HCl, pH 7.8, 200 mM NaCl, 0.05% (w/v) PEG-8000, 0.02% (w/v) NaN3) was used. The IC50 was determined by combining in appropriate wells of a Costar half-area microtiter plate 25 μl human factor Xa (Enzyme Research Laboratories, Inc.; South Bend, Ind.) in TBS-PEG; 40 μl 10% (v/v) DMSO in TBS-PEG (uninhibited control) or various concentrations of the compound to be tested diluted in 10% (v/v) DMSO in TBS-PEG; and substrate S-2765 (N(α)-benzyloxycarbonyl-D-Arg-Gly-L-Arg-p-nitroanilide; Kabi Pharmacia, Inc.; Franklin, Ohio) in TBS-PEG.
# The assay was performed by pre-incubating the compound of formula I plus enzyme for 10 min. Then the assay was initiated by adding substrate to obtain a final volume of 100 μl. The initial velocity of chromogenic substrate hydrolysis was measured by the change in absorbance at 405 nm using a Bio-tek Instruments kinetic plate reader (Ceres UV900HDi) at 25° C. during the linear portion of the time course (usually 1.5 min after addition of substrate). The enzyme concentration was 0.5 nM and substrate concentration was 140 μM.
# T1 sequence (P00742 235-488 limits assumed): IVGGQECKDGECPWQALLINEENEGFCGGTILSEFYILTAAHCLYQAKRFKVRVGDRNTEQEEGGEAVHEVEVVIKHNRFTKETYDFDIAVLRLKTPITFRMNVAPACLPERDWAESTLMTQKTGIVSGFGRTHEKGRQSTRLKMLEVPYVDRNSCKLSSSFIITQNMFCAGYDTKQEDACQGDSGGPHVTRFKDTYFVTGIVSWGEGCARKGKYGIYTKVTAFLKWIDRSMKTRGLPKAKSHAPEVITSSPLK
# T1 sequence (P00742 41-179 partner limits assumed): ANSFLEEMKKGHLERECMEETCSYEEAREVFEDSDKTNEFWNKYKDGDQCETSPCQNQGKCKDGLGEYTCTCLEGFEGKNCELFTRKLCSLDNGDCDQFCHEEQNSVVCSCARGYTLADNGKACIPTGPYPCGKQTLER
row,SMILES,Ki
1,"Cc1nc(-c2ccccc2)n(Cc2cc(-c3ccc(Cl)s3)on2)c1C(=O)NC1CCN(C(C)C)CC1 [Example 18, 3-[5-(5-Chloro-thiophen-2-yl)-isoxazol-3-ylmethyl]-5-methyl-2-phenyl-3H-imidazole-4-carboxylic acid (1-isopropyl-piperidin-4-yl)-amide]",7 nM
2,"CCOC(=O)c1ncc(C(=O)NC2CCN(C(C)C)CC2)n1Cc1cc(-c2ccc(Cl)s2)on1 [Example 37, 1-[5-(5-Chloro-thiophen-2-yl)-isoxazol-3-ylmethyl]-5-(1-isopropyl-piperidin-4-ylcarbamoyl)-1H-imidazole-2-carboxylic acid ethyl ester]",8 nM
3,"CCc1nc(C(=O)NC2CCN(C(C)C)CC2)c(C)n1Cc1cc(-c2ccc(Cl)s2)on1 [Example 6, 1-[5-(5-Chloro-thiophen-2-yl)-isoxazol-3-ylmethyl]-2-ethyl-5-methyl-1H-imidazole-4-carboxylic acid (1-isopropyl-piperidin-4-yl)-amide]",530 nM
4,"CC(C)N1CCC(NC(=O)c2nc(C(=O)OCC3CC3)cn2Cc2cc(-c3ccc(Cl)s3)on2)CC1 [Example 45, 1-[5-(5-Chloro-thiophen-2-yl)-isoxazol-3-ylmethyl]-2-(1-isopropyl-piperidin-4-ylcarbamoyl)-1H-imidazole-4-carboxylic acid cyclopropylmethyl ester]",57 nM
5,"COCc1ncc(C(=O)NC2CCN(C(C)C)CC2)n1Cc1cc(-c2ccc(Cl)s2)on1 [Example 9, 3-[5-(5-Chloro-thiophen-2-yl)-isoxazol-3-ylmethyl]-2-methoxymethyl-3H-imidazole-4-carboxylic acid (1-isopropyl-piperidin-4-yl)-amide]",86 nM
6,"CC(C)N1CCC(NC(=O)c2nc(C(=O)N3CC(O)C3)cn2Cc2cc(-c3ccc(Cl)s3)on2)CC1 [Example 43, 1-[5-(5-Chloro-thiophen-2-yl)-isoxazol-3-ylmethyl]-4-(3-hydroxy-azetidine-1-carbonyl)-1H-imidazole-2-carboxylic acid (1-isopropyl-piperidin-4-yl)-amide]",62 nM
7,"CC(C)N1CCC(NC(=O)c2nc(C(=O)N(C)C)cn2Cc2cc(-c3ccc(Cl)s3)on2)CC1 [Example 44, 1-[5-(5-Chloro-thiophen-2-yl)-isoxazol-3-ylmethyl]-1H-imidazole-2,4-dicarboxylic acid 4-dimethylamide 2-[(1-isopropyl-piperidin-4-yl)-amide]]",136 nM
8,"O=C(NC1CCN(c2ccncc2)CC1)c1nccn1Cc1cc(-c2ccc(Cl)s2)on1 [Example 65, 1-[5-(5-Chloro-thiophen-2-yl)-isoxazol-3-ylmethyl]-1H-imidazole-2-carboxylic acid (3,4,5,6-tetrahydro-2H-[1,4′]bipyridinyl-4-yl)-amide]",118 nM
9,"CC(C)N1CCC(NC(=O)c2cnc(-c3c(F)cccc3F)n2Cc2cc(-c3ccc(Cl)s3)on2)CC1 [Example 12, 3-[5-(5-Chloro-thiophen-2-yl)-isoxazol-3-ylmethyl]-2-(2,6-difluoro-phenyl)-3H-imidazole-4-carboxylic acid (1-isopropyl-piperidin-4-yl)-amide]",18 nM
10,"CC(C)N1CCC(NC(=O)c2nc(C(=O)OC(C)(C)C)cn2Cc2cc(-c3ccc(Cl)s3)on2)CC1 [Example 38, 1-[5-(5-Chloro-thiophen-2-yl)-isoxazol-3-ylmethyl]-2-(1-isopropyl-piperidin-4-ylcarbamoyl)-1H-imidazole-4-carboxylic acid tert-butyl ester]",174 nM
11,"CC(C)N1CCC(NC(=O)c2cnc(C(=O)N3CCCOCC3)n2Cc2cc(-c3ccc(Cl)s3)on2)CC1 [Example 71, 3-[5-(5-Chloro-thiophen-2-yl)-isoxazol-3-ylmethyl]-2-(perhydro-1,4-oxazepine-4-carbonyl)-3H-imidazole-4-carboxylic acid (1-isopropyl-piperidin-4-yl)-amide]",51 nM
12,"CC(C)c1ncc(C(=O)NC2CCN(C(C)C)CC2)n1Cc1cc(-c2ccc(Cl)s2)on1 [Example 16, 3-[5-(5-Chloro-thiophen-2-yl)-isoxazol-3-ylmethyl]-2-isopropyl-3H-imidazole-4-carboxylic acid (1-isopropyl-piperidin-4-yl)-amide]",254 nM

# Continued by falling Ki, values first:
row,Ki,SMILES
1,640 nM,"O=C(NCC1CCN(c2ccncc2)CC1)c1nccn1Cc1cc(-c2ccc(Cl)s2)on1 [Example 63, 1-[5-(5-Chloro-thiophen-2-yl)-isoxazol-3-ylmethyl]-1H-imidazole-2-carboxylic acid (3,4,5,6-tetrahydro-2H-[1,4′]bipyridinyl-4-ylmethyl)-amide]"
2,401 nM,"COCCc1ncc(C(=O)NC2CCN(C(C)C)CC2)n1Cc1cc(-c2ccc(Cl)s2)on1 [Example 14, 3-[5-(5-Chloro-thiophen-2-yl)-isoxazol-3-ylmethyl]-2-(2-methoxy-ethyl)-3H-imidazole-4-carboxylic acid (1-isopropyl-piperidin-4-yl)-amide]"
3,140 nM,"CC(C)N1CCC(NC(=O)c2cncn2CC(=O)Nc2ccc(Cl)cn2)CC1 [Example 29, 3-[(5-Chloro-pyridin-2-ylcarbamoyl)-methyl]-3H-imidazole-4-carboxylic acid (1-isopropyl-piperidin-4-yl)-amide]"
4,117 nM,"CC(C)N1CCC(NC(=O)c2nc(C(=O)O)cn2Cc2cc(-c3ccc(Cl)s3)on2)CC1 [Example 39, 1-[5-(5-Chloro-thiophen-2-yl)-isoxazol-3-ylmethyl]-2-(1-isopropyl-piperidin-4-ylcarbamoyl)-1H-imidazole-4-carboxylic acid]"
5,112 nM,"CC(C)N1CCC(NC(=O)c2cnc(-c3ccccn3)n2Cc2cc(-c3ccc(Cl)s3)on2)CC1 [Example 17, 3-[5-(5-Chloro-thiophen-2-yl)-isoxazol-3-ylmethyl]-2-pyridin-2-yl-3H-imidazole-4-carboxylic acid (1-isopropyl-piperidin-4-yl)-amide]"
6,65 nM,"CC(C)N1CCC(NC(=O)c2cncn2Cc2cc(-c3ccc(Cl)s3)on2)CC1 [Example 1, 3-[5-(5-Chloro-thiophen-2-yl)-isoxazol-3-ylmethyl]-3H-imidazole-4-carboxylic acid (1-isopropyl-piperidin-4-yl)-amide]"
7,49 nM,"CC(C)N1CCC(NC(=O)c2nccn2Cc2cc(-c3ccc(Cl)s3)on2)CC1 [Example 60, 1-[5-(5-Chloro-thiophen-2-yl)-isoxazol-3-ylmethyl]-1H-imidazole-2-carboxylic acid (1-isopropyl-piperidin-4-yl)-amide]"
8,37 nM,"COC(=O)CCc1cn(Cc2cc(-c3ccc(Cl)s3)on2)c(C(=O)NC2CCN(C(C)C)CC2)n1 [Example 49, 3-[1-[5-(5-Chloro-thiophen-2-yl)-isoxazol-3-ylmethyl]-2-(1-isopropyl-piperidin-4-ylcarbamoyl)-1H-imidazol-4-yl]-propionic acid methyl ester]"
9,27 nM,"CCc1nc(C)c(C(=O)NC2CCN(C(C)C)CC2)n1Cc1cc(-c2ccc(Cl)s2)on1 [Example 5, 3-[5-(5-Chloro-thiophen-2-yl)-isoxazol-3-ylmethyl]-2-ethyl-5-methyl-3H-imidazole-4-carboxylic acid (1-isopropyl-piperidin-4-yl)-amide]"
10,7 nM,"CC(C)N1CCC(NC(=O)c2c(Cl)nc(-c3ccccc3)n2Cc2cc(-c3ccc(Cl)s3)on2)CC1 [Example 3, 5-Chloro-3-[5-(5-chloro-thiophen-2-yl)-isoxazol-3-ylmethyl]-2-phenyl-3H-imidazole-4-carboxylic acid (1-isopropyl-piperidin-4-yl)-amide]"
11,6 nM,"CCS(=O)(=O)c1ncc(C(=O)NC2CCN(C(C)C)CC2)n1Cc1cc(-c2ccc(Cl)s2)on1 [Example 23, 3-[5-(5-Chloro-thiophen-2-yl)-isoxazol-3-ylmethyl]-2-ethanesulfonyl-3H-imidazole-4-carboxylic acid (1-isopropyl-piperidin-4-yl)-amide]"
12,4 nM,"CC(C)N1CCC(NC(=O)c2cnc(C3CC3)n2Cc2cc(-c3ccc(Cl)s3)on2)CC1 [Example 11, 3-[5-(5-Chloro-thiophen-2-yl)-isoxazol-3-ylmethyl]-2-cyclopropyl-3H-imidazole-4-carboxylic acid (1-isopropyl-piperidin-4-yl)-amide]"
13,1 nM,"Cc1nc(I)n(Cc2cc(-c3ccc(Cl)s3)on2)c1C(=O)NC1CCN(C(C)C)CC1 [Example 7, 3-[5-(5-Chloro-thiophen-2-yl)-isoxazol-3-ylmethyl]-2-iodo-5-methyl-3H-imidazole-4-carboxylic acid (1-isopropyl-piperidin-4-yl)-amide]"
